Test: xn = mol fraction of the nth substance listed

CCCC[n+]1ccn(C)c1.N#C[S-] + O
101 kPa
Settings	electrical conductivity [S/m]	viscosity [mPa·s]
298.15 K, x1 = 0.0004503	0.224	–
298.15 K, x1 = 0.0009182	0.395	–
298.15 K, x1 = 0.001853	0.716	–
298.15 K, x1 = 0.00477	1.451	–
298.15 K, x1 = 0.00776	1.952	–
298.15 K, x1 = 0.01001	2.3	–
298.15 K, x2 = 0.2007	–	33
298.15 K, x2 = 0.3169	–	25.9
298.15 K, x2 = 0.9437	4.47	–
298.15 K, x2 = 0.9626	4.02	–
298.15 K, x2 = 0.9781	3.33	–
308.15 K, x2 = 0.2007	–	22.5
318.15 K, x2 = 0.2007	–	16.2
318.15 K, x2 = 0.3169	–	13.24
318.15 K, x2 = 0.7201	–	4.66
328.15 K, x2 = 0	–	16.7
328.15 K, x2 = 0.0998	–	14.22
328.15 K, x2 = 0.6426	–	4.71
328.15 K, x2 = 0.7201	–	3.65
338.15 K, x2 = 0.3169	–	7.96
338.15 K, x2 = 0.5296	–	5.12
338.15 K, x2 = 0.7949	–	2.23
348.15 K, x2 = 0.5296	–	4.16

CCCO + O + CCCCCCCCCCCCOS(=O)(=O)[O-].[Na+]
298 K, 100 kPa, frequency 0.001 MHz
Settings	electrical conductivity [S/m]
x1 = 0.01544, x3 = 0	0.00015
x1 = 0.02615, x2 = 0.9739	0.00015
x1 = 0.04738, x2 = 0.9526	0.00011
x1 = 0.07176, x2 = 0.9282	0.00012
x1 = 0.1087, x2 = 0.8913	0.00014

O=S1(=O)CCCC1 + CCCC[N+]1(C)CCCC1.O=S(=O)([N-]S(=O)(=O)C(F)(F)F)C(F)(F)F
101.33 kPa, x2 = 0.5
Settings	viscosity [mPa·s]
303.15 K	25.8
313.15 K	18.6
323.15 K	12.9
333.15 K	9.7
343.15 K	8
353.25 K	6.7

CC[n+]1ccn(C)c1C.O=S(=O)([N-]S(=O)(=O)C(F)(F)F)C(F)(F)F + CC1COC(=O)O1
101.3 kPa
Settings	viscosity [mPa·s]
303.15 K, x1 = 0.203	5.35
303.15 K, x1 = 0.5825	20.07
313.15 K, x1 = 0.7004	19.96
318.15 K, x1 = 0.3994	7.33
318.15 K, x1 = 0.5149	10.82
318.15 K, x1 = 0.8032	21.86
323.15 K, x1 = 0.1025	2.411
323.15 K, x1 = 0.5149	9.41
323.15 K, x1 = 0.7004	15.48
328.15 K, x1 = 0.203	3.199
328.15 K, x1 = 0.8032	16.86
333.15 K, x1 = 0.3994	5.29
338.15 K, x1 = 0.3078	3.726
343.15 K, x1 = 0.3994	4.376
343.15 K, x1 = 0.5825	6.93
343.15 K, x1 = 0.8903	13.67
348.15 K, x1 = 0.1025	1.651
348.15 K, x1 = 0.7004	8.13

CCOC(=O)C[n+]1ccn(C)c1.[Cl-] + NC(N)=O
101 kPa
Settings	electrical conductivity, 298 K [S/m]	electrical conductivity, 308 K [S/m]	electrical conductivity, 318 K [S/m]	electrical conductivity, 328 K [S/m]	electrical conductivity, 338 K [S/m]	viscosity, 298.15 K [mPa·s]
x1 = 0.4945	0.282	0.347	0.414	0.489	0.602	567
x1 = 0.5947	0.346	0.433	0.51	0.607	0.722	482
x1 = 0.7459	0.419	0.525	0.631	0.741	0.883	415
x1 = 1	0.509	0.636	0.764	0.916	1.06	349

CCCC[n+]1ccn(C)c1.N#C[S-] + c1ccccc1
viscosity [mPa·s], 100 kPa
Settings	x2 = 0	x2 = 0.2334	x2 = 0.258	x2 = 0.3919	x2 = 0.5094
298.15 K	62.8	33	30.7	20.1	12.51
308.15 K	40.6	22.5	21.1	14.29	9.27
318.15 K	27.8	16.2	15.23	10.64	7.16
328.15 K	20.1	12.19	11.52	8.25	5.65

CC[N+](CC)(CC)CC.[Cl-] + CCCCCCCCCC(=O)O
100 kPa, x1 = 0.333
Settings	electrical conductivity [S/m]	viscosity [mPa·s]
293.15 K	0.0223	275
303.15 K	0.0338	185
313.15 K	0.0498	128
323.15 K	0.0718	90
333.15 K	0.101	64.9

CC[NH+](CC)CC.O=S(=O)([O-])O + O
298.15 K, 101 kPa
Settings	viscosity [mPa·s]
x2 = 0.3012	184
x2 = 0.4244	169
x2 = 0.6124	140
x2 = 0.7344	110.8
x2 = 0.9244	39.8

CCCC[n+]1ccn(C)c1.N#C[S-] + CCCCCO
101 kPa
Settings	viscosity [mPa·s]
308.15 K, x2 = 0.0193	31.1
308.15 K, x2 = 0.1443	23.4
318.15 K, x2 = 0.5557	7.31
328.15 K, x2 = 0.7302	3.71
338.15 K, x2 = 0	12.7
338.15 K, x2 = 0.3843	6.75
338.15 K, x2 = 0.616	4.13
348.15 K, x2 = 0.2751	6.6
348.15 K, x2 = 0.3843	5.49
348.15 K, x2 = 0.7914	2.17
348.15 K, x2 = 0.9135	1.5

Cn1cc[n+](CCC(=O)O)c1.[Cl-] + O
viscosity [mPa·s], 100 kPa
Settings	x1 = 0.0009214	x1 = 0.001799	x1 = 0.003593	x1 = 0.005399	x1 = 0.00717	x1 = 0.008993
293.15 K	1.006	1.022	1.056	1.092	1.128	1.167
298.15 K	0.893	0.907	0.937	0.966	0.995	1.03
303.15 K	0.802	0.814	0.839	0.865	0.89	0.922
308.15 K	0.726	0.735	0.759	0.783	0.807	0.831
313.15 K	0.658	0.668	0.689	0.711	0.73	0.75

— the CheMixHub ionic liquid set
